What was measured:
HCT-116 = test: MTT assay cytotoxicity; format: cell-based; conditions: Homo sapiens, HCT-116 (colon cancer), 72 h
Hek293t = test: MTT assay cytotoxicity; format: cell-based; conditions: Homo sapiens, HEK-293T, Hek293t (embryonic kidney, normal), 72 h
MCF-7 = test: MTT assay cytotoxicity; format: cell-based; conditions: Homo sapiens, MCF7, MCF-7 (breast cancer), 72 h
A-549 = test: MTT assay cytotoxicity; format: cell-based; conditions: Homo sapiens, A549, A-549 (lung cancer), 72 h
WI38 = test: MTT assay cytotoxicity; format: cell-based; conditions: Homo sapiens, WI-38, WI38 (fibroblasts, normal), 72 h
in vitro = conditions: dog
C. albicans [1] = test: Minimum inhibitory concentration (CLSI); format: cell-based, Candida albicans
B. subtilis [2] = test: Agar-diffusion assay (zone of inhibition); conditions: Bacillus subtilis, ATCC6633, 24 h
Description: (§1) Initial screening of antimicrobial activity was performed by using agar-diffusion assay against a number of microorganisms: fungi (Aspergillus niger INA 00760), yeast (Candida albicans CBS 8836), gram-positive bacteria (Bacillus subtilis ATCC 6633, Staphylococcus aureus ATCC 25923) and gram-negative bacteria (Escherichia coli ATCC 25922). For the bacterial strains, the agar-diffusion method on the Mueller–Hinton medium was performed using direct colony suspension, equivalent to a 0.5 McFarland standard as inoculate. For the fungal test-strains, the Sabouraud medium was used with 0.2% glucose, inoculated with direct colony suspension (10^6 CFU/100 mL). The tested compounds were applied on Petri dishes on sterile paper disks (6 mm); 100 µg/disk inhibition zones were measured after 24 h incubation at 37 °C. As a positive control, standard antibiotic disks containing 30 µg vancomycin (for B. subtilis), 10 µg gentamicin (for E. coli), and 40 µg fluconazole (for A. niger and C. albicans) were used.

C. albicans [3] = test: Agar-diffusion assay (zone of inhibition); conditions: Candida albicans, CBS8836, 24 h
Description: as §1

B. subtilis [4] = test: Minimum inhibitory concentration (CLSI); format: cell-based, Bacillus subtilis
A. niger [5] = test: Agar-diffusion assay (zone of inhibition); conditions: Aspergillus niger, 24 h
Description: as §1

St. aureus [6] = test: Minimum inhibitory concentration (CLSI); format: cell-based, Staphylococcus aureus; conditions: ATCC 29213 strain used for MIC
Description: Minimum inhibitory concentrations (MIC) were determined for the selected active strains according to the Performance Standards for Antimicrobial Susceptibility Testing (CLSI). The Staphylococcus aureus ATCC 29213 strain was used for MIC measurements. Amphotericin B, clotrimazole, vancomycin and ampicillin were used as positive control.

A. niger [7] = test: Minimum inhibitory concentration (CLSI); format: cell-based, Aspergillus niger
E. coli = test: Minimum inhibitory concentration (CLSI); format: cell-based, Escherichia coli
[8] = system: cancer or normal cell lines; test: MTT assay cytotoxicity, summary over the cell line panel; conditions: for IC50: read-out: IC50 against cancer cell lines (range over compounds and lines); for toxicity against cancer or normal cell lines: either cancer or normal cell lines
St. aureus [9] = test: Agar-diffusion assay (zone of inhibition); conditions: Staphylococcus aureus, ATCC25923, 24 h
Description: as §1

[10] = system: Rimantadine-resistant M2 proton channel; design: method as in PMID 27187859; conditions: cited from earlier work

Row | SMILES | IC50 (HCT-116) [µM] | melting point | IC50 (MCF-7) [µM] | IC50 (A-549) [µM] | IC50 (WI38) [µM] | also measured
1 | O=S(=O)(NC1=NOC2(CCCCCCC2)C1)c1cccs1 [Compound 5k, N -(1-Oxa-2-azaspiro[4.7]dodec-2-en-3-yl)thiophene-2-sulfonamide] | 131 ± 80 | 149 to 151 °C | > 150 | 111 ± 20 | – | IC50 (Hek293t): 65.5 ± 13.5 µM
2 | O=S(=O)(NC1=NOC2(CCCCCCC2)C1)c1ccc(F)cc1F [Compound 5h, 2,4-Difluoro-N-(1-oxa-2-azaspiro[4.7]dodec-2-en-3-yl)benzenesulfonamide] | 97.1 ± 34 | 118 to 119 °C | 94.7 ± 15.5 | 77.1 ± 10.2 | – | IC50 (Hek293t): 60 ± 17 µM
3 | Cc1ccc(S(=O)(=O)NC2=NOC3(CCCCCCC3)C2)cc1 [Compound 5d, 4-Methyl-N-(1-oxa-2-azaspiro[4.7]dodec-2-en-3-yl)benzenesulfonamide] | – | 122 to 124 °C | 94 ± 30 | 143 ± 50 | 54.6 ± 7 | –
4 | O=S(=O)(NC1=NOC2(CCCCCCC2)C1)c1cccnc1 [Compound 5l, N -(1-Oxa-2-azaspiro[4.7]dodec-2-en-3-yl)pyridine-3-sulfonamide] | 133 ± 68 | 145 to 146 °C | > 150 | > 150 | – | IC50 (Hek293t): > 500 µM
5 | CC(N)C12CC3CC(CC(C3)C1)C2 (stereo not drawn) [Rimantadine, reference compound] | – | – | – | – | – | CC50 (in vitro): 406 ± 26 µM
6 | Clc1ccccc1C(c1ccccc1)(c1ccccc1)n1ccnc1 [Clotrimazole, reference compound] | – | – | – | – | – | MIK (C. albicans [1]): 4 µg/mL
7 | O=[N+]([O-])C1=NOC2CCCCCCC12 (stereo not drawn) [Compound 2, 3-Nitro-3a,4,5,6,7,8,9,9a-octahydrocycloocta[d]isoxazole] | 17.7 ± 5 | 52 to 53 °C | 35.4 ± 4.5 | 40.4 ± 2.5 | 27.4 ± 4 | zone of inhibition at 100 µg/disc (B. subtilis [2]): 16 mm; MIK (C. albicans [1]): 32 µg/mL; zone of inhibition at 100 µg/disc (C. albicans [3]): 19 mm; MIK (B. subtilis [4]): 32 µg/mL; zone of inhibition at 100 µg/disc (A. niger [5]): 15 mm; MIK (St. aureus [6]): 8 to 16 µg/mL; MIK (A. niger [7]): 16 µg/mL; MIK (E. coli): > 256 µg/mL; IC50 [8]: 17.7 to 58.8 µM; zone of inhibition at 100 µg/disc (St. aureus [9]): 25 mm
8 | O=[N+]([O-])C1=NOC2(CCCCCCC2)C1 [Compound 1, 3-Nitro-1-oxa-2-azaspiro[4.7]dodec-2-ene] | 20.8 ± 5 | 55 to 57 °C | 58.8 ± 5 | 57.1 ± 7 | 42.2 ± 13 | zone of inhibition at 100 µg/disc (B. subtilis [2]): 12 mm; MIK (C. albicans [1]): 8 µg/mL; zone of inhibition at 100 µg/disc (C. albicans [3]): 24 mm; MIK (B. subtilis [4]): 32 µg/mL; zone of inhibition at 100 µg/disc (A. niger [5]): 15 mm; MIK (St. aureus [6]): 32 µg/mL; MIK (A. niger [7]): 8 µg/mL; MIK (E. coli): > 256 µg/mL; IC50 [8]: 17.7 to 58.8 µM; zone of inhibition at 100 µg/disc (St. aureus [9]): 15 mm
9 | C[C@@H]1[C@H](O)[C@@H](C)/C=C/C=C/C=C/C=C/C=C/C=C/C=C/[C@H](O[C@@H]2O[C@H](C)[C@@H](O)[C@H](N)[C@@H]2O)C[C@@H]2O[C@](O)(C[C@@H](O)C[C@@H](O)[C@H](O)CC[C@@H](O)C[C@@H](O)CC(=O)O[C@H]1C)C[C@H](O)[C@H]2C(=O)O [Amphotericin B, reference compound] | – | – | – | – | – | MIK (C. albicans [1]): 2 µg/mL; MIK (A. niger [7]): 0.04 to 1.5 µg/mL
10 | O=[N+]([O-])c1ccccc1S(=O)(=O)NC1=NOC2(CCCCCCC2)C1 [Compound 5i, 2-Nitro-N-(1-oxa-2-azaspiro[4.7]dodec-2-en-3-yl)benzenesulfonamide] | – | 164 to 165 °C | – | – | – | –
11 | O=S(=O)(NC1=NOC2(CCCCCCC2)C1)c1ccc2c(c1)OCCO2 [Compound 5f, N-(1-Oxa-2-azaspiro[4.7]dodec-2-en-3-yl)-2,3-dihydrobenzo[b][1,4]dioxine-6-sulfonamide] | 23.6 ± 4.5 | 192 to 194 °C | 64.1 ± 8 | 119 | 42 ± 8.6 | –
12 | NC1=NOC2CCCCCCC12 (stereo not drawn) [Compound 4, 3a,4,5,6,7,8,9,9a-Octahydrocycloocta[d]isoxazol-3-amine] | > 500 | – | > 150 | > 150 | > 150 | CC50 (in vitro): > 1790 µM; toxicity against cancer or normal cell lines [8]: not toxic
13 | NC1=NOC2(CCCCCCC2)C1 [Compound 3, 1-Oxa-2-azaspiro[4.7]dodec-2-en-3-amine] | > 500 | – | > 150 | > 150 | > 150 | CC50 (in vitro): > 550 µM; toxicity against cancer or normal cell lines [8]: not toxic
14 | O=S(=O)(Cc1ccccc1)NC1=NOC2(CCCCCCC2)C1 [Compound 5b, N-(1-Oxa-2-azaspiro[4.7]dodec-2-en-3-yl)-1-phenylmethanesulfonamide] | > 200 | 68 to 70 °C | 138 ± 25 | – | > 500 | –
15 | CN[C@H](CC(C)C)C(=O)N[C@H]1C(=O)N[C@@H](CC(N)=O)C(=O)N[C@H]2C(=O)N[C@H]3C(=O)N[C@H](C(=O)N[C@H](C(=O)O)c4cc(O)cc(O)c4-c4cc3ccc4O)[C@H](O)c3ccc(c(Cl)c3)Oc3cc2cc(c3O[C@@H]2O[C@H](CO)[C@@H](O)[C@H](O)[C@H]2O[C@H]2C[C@](C)(N)[C@H](O)[C@H](C)O2)Oc2ccc(cc2Cl)[C@H]1O [Vancomycin, reference compound] | – | – | – | – | – | MIK (B. subtilis [4]): 0.25 to 1 µg/mL; MIK (St. aureus [6]): 0.5 to 2 µg/mL
16 | CC(=O)Nc1ccc(S(=O)(=O)NC2=NOC3(CCCCCCC3)C2)cc1 [Compound 5g, N-(4-(N-1-Oxa-2-azaspiro[4.7]dodec-2-en-3-ylsulfamoyl)phenyl)acetamide] | 41.3 ± 17 | 171 to 173 °C (dec.) | 54.5 ± 15 | 54 ± 14 | – | IC50 (Hek293t): 30.4 ± 14.5 µM; IC50 [8]: 17.7 to 58.8 µM
17 | CS(=O)(=O)NC1=NOC2(CCCCCCC2)C1 [Compound 5a, N-(1-Oxa-2-azaspiro[4.7]dodec-2-en-3-yl)methanesulfonamide] | – | 110 to 111 °C | – | – | – | –
18 | Cc1cc(C)c(S(=O)(=O)NC2=NOC3(CCCCCCC3)C2)c(C)c1 [Compound 5e, 2,4,6-Trimethyl-N-(1-oxa-2-azaspiro[4.7]dodec-2-en-3-yl)benzenesulfonamide] | 70.1 ± 11.2 | 135 to 136 °C | 79 ± 36 | 61 ± 21 | 95.5 ± 14.3 | –
19 | CC1(C)S[C@@H]2[C@H](NC(=O)[C@H](N)c3ccccc3)C(=O)N2[C@H]1C(=O)O [Ampicillin, reference compound] | – | – | – | – | – | MIK (E. coli): 2 to 8 µg/mL
20 | O=S(=O)(NC1=NOC2(CCCCCCC2)C1)c1ccc2ccccc2c1 [Compound 5j, N-(1-Oxa-2-azaspiro[4.7]dodec-2-en-3-yl)naphthalene-2-sulfonamide] | 19 ± 3 | 143 to 145 °C | 26.8 ± 3.5 | 27.5 ± 4.2 | – | IC50 (Hek293t): 23.1 ± 6.5 µM; IC50 [8]: 17.7 to 58.8 µM
21 | CC1CCC2(CC1)SC(N)=NC2(C)C (stereo not drawn) [A, spirothiazamenthane] | – | – | – | – | – | activity against the Rimantadine-resistant M2 proton channel [10]: inactive
22 | O=S(=O)(NC1=NOC2(CCCCCCC2)C1)c1ccccc1 [Compound 5c, N-(1-Oxa-2-azaspiro[4.7]dodec-2-en-3-yl)benzenesulfonamide] | 63 ± 18 | 156 to 157 °C | 116 ± 30 | 163 | 113 | –
